Results published in US7772268B2, “Diacyl indazole derivatives as lipase and phospholipase inhibitors” (Sanofi-Aventis, priority 2005, dated 2010).

Each compound was assayed against T1, hormone sensitive lipase, HSL (Rattus norvegicus, UniProt P15304) (assay: HSL inhibition assay (partially purified HSL, [3H]trioleoylglycerol substrate)). Details: partially purified HSL from rat fat cells; 37° C., 30 min.
T1 construct: Isolated rat fat cells are obtained from epididymal adipose tissue; from tissue; host or cells: rat epididymal adipose tissue (isolated fat cells, Wistar rats)
T1 sequence (P15304 301-1068 limits assumed): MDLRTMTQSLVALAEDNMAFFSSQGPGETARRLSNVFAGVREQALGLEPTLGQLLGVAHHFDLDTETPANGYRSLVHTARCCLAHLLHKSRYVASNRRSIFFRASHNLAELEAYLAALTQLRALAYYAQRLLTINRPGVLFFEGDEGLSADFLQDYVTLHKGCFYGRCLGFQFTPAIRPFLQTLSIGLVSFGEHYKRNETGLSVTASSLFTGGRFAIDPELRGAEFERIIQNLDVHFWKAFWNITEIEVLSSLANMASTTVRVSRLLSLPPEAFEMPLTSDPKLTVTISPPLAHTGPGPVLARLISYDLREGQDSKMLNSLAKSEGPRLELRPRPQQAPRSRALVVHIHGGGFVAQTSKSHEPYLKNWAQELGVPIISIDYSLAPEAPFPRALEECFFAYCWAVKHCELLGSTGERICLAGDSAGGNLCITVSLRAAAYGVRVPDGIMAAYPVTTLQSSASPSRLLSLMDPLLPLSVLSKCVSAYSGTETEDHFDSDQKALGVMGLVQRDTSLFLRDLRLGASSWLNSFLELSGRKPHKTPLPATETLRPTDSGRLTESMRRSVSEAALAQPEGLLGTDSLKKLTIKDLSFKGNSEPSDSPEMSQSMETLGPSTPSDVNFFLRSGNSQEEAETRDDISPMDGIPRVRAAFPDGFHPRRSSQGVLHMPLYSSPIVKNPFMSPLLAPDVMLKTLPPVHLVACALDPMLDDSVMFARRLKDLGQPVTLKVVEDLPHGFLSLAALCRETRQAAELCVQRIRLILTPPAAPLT
Assay type: biochemical
Experimental: Preparation of the partially purified HSL:
Isolated rat fat cells are obtained from epididymal adipose tissue from untreated male rats (Wistar, 220-250 g) by collagenase treatment in accordance with published methods (e.g. S, Nilsson et al., Anal. Biochem. 158, 1986, 399-407; G. Fredrikson et al., J. Biol. Chem. 256, 1981, 6311-6320; H. Tornquist et al., J. Biol. Chem. 251, 1976, 813-819). The fat cells from 10 rats are washed three times by flotation with 50 ml of homogenization buffer ([…] Tris/HCl, pH 7.4, 0.25 M sucrose, 1 mM ETDA, 1 mM DTT, 10 μg/ml leupeptin, 10 μg/ml antipain, 20 μg/ml pepstatin) each time and finally taken up in 10 ml of homogenization buffer. The fat cells are homogenized in a Teflon-in-glass homogenizer (Braun-Melsungen) by 10 strokes at 1500 rpm and 15° C. The homogenate is centrifuged (Sorvall SM24 tubes, 5000 rpm, 10 min, 4° C.). The subnatant between the layer of fat at the top and the pellet is removed and the centrifugation is repeated. The subnatant resulting therefrom is centrifuged again (Sorvall SM24 tubes, 20 000 rpm, 45 min, 4° C.). […] After incubation at 4° C. for 60 min (shaking at intervals of 15 min), the mixture is centrifuged (Sorvall SM24 tubes, 3000 rpm, 10 min, 4° C.). The supernatant is adjusted to pH 5.2 by adding glacial acetic acid and is incubated at 4° C. for 30 min. The precipitates are collected by centrifugation (Sorvall SS34, 12 000 rpm, 10 min, 4° C.) and suspended in 2.5 ml of 20 mM Tris/HCl, pH 7.0, 1 mM EDTA, 65 mM NaCl, 13% sucrose, 1 mM DTT, 10 μg/ml leupeptin/pepstatin/antipain. The suspension is dialyzed against 25 mM Tris/HCl, pH 7.4, 50% glycerol, 1 mM DTT, 10 μg/ml leupeptin, pepstatin, antipain at 4° C. overnight and then loaded onto a hydroxiapatite column (0.1 g per 1 ml of suspension, equilibrated with 10 mM potassium phosphate, pH 7.0, 30% glycerol, 1 mM DTT). The column is washed with four volumes of equilibration buffer at a flow rate of 20 to 30 ml/h. The HSL is eluted with one volume of equilibration buffer containing 0.5 M potassium phosphate and then dialyzed (see above) and concentrated 5- to 10-fold by ultrafiltration (Amicon Diaflo PM 10 Filter) at 4° C. The partially purified HSL can be stored at −70° C. for 4 to 6 weeks.
To prepare the substrate, 25-50 μCi of [3H]trioleoylglycerol (in toluene), 6.8 μmol of unlabeled trioleoylglycerol and 0.6 mg of phospholipids (phosphatidylcholine/phosphatidylinositol 3:1 w/v) are mixed, dried with N2 and then taken up in 2 ml of 0.1 M KPi (pH 7.0) by ultrasound treatment (Branson 250, microtip, setting 1-2, 2×1 min with an interval of 1 min). After addition of 1 ml of KPi and renewed ultrasound treatment (4×30 sec on ice with intervals of 30 sec), 1 ml of 20% BSA (in KPi) is added (final concentration of trioleoylglycerol 1.7 mM). For the reaction, 100 μl of substrate solution are pipetted into 100 μl of HSL solution (HSL prepared as above, diluted in 20 mM KPi, pH 7.0, 1 mM EDTA, 1 mM DTT, 0.02% BSA, 20 μg/ml pepstatin, 10 μg/ml leupeptin) and incubated at 37° C. for 30 min. Addition of 3.25 ml of methanol/chloroform/heptane (10:9:7) and of 1.05 ml of 0.1 M K2CO3, 0.1 M boric acid (pH 10.5) is followed by thorough mixing and finally centrifugation (800×g, 20 min). After phase separation, one equivalent of the upper phase (1 ml) is removed and the radioactivity is determined by liquid scintillation measurement.
Substances are normally tested in four independent mixtures. The inhibition of the HSL enzymatic activity by a test substance is determined by comparing with an uninhibited control reaction. The IC50 is calculated from an inhibition plot with at least 10 concentrations of the test substance. The GRAPHIT, Elsevier-BIOSOFT software package is used to analyze the data.

Row | IC50 | Compound
1 | 1.15 µM | CC1CCN(C(=O)Oc2nn(C(=O)N3CCC(C)CC3)c3cc(F)ccc23)CC1 [Example 9b, 6-fluoro-1-(4-methylpiperidine-1-carbonyl)-1H-indazol-3-yl 4-methylpiperidine-1-carboxylate]
2 | 1 µM | CC1CCN(C(=O)Oc2nn(C(=O)N3CCC(C(F)(F)F)CC3)c3cc(N)ccc23)CC1 [Example 14, 6-Amino-1-(4-trifluoromethylpiperidine-1-carbonyl)-1H-indazol-3-yl 4-methyl-piperidine-1-carboxylate]
3 | 0.62 µM | O=C(N1CCN(c2ccccc2)CC1)n1c(=O)c2ccc(F)cc2n1C(=O)N1CCN(c2ccccc2)CC1 [Example 1b, 6-fluoro-1,2-bis(4-phenylpiperazine-1-carbonyl)-1,2-dihydroindazol-3-one]
4 | 0.58 µM | Cc1cc(O)nc2c1c(OC(=O)N1CCC(C)CC1)nn2C(=O)N1CCC(C(F)(F)F)CC1 [Example 16, 6-Hydroxy-4-methyl-1-(4-trifluoromethylpiperidine-1-carbonyl)-1H-pyrazolo-[3,4-b]pyridin-3-yl 4-methylpiperidine-1-carboxylate]
5 | 1.11 µM | O=C(Oc1nn(C(=O)N2CCc3sccc3C2)c2cc(F)ccc12)N1CCc2sccc2C1 [Example 2, 1-(6,7-Dihydro-4H-thieno[3,2-c]pyridine-5-carbonyl)-6-fluoro-1H-indazol-3-yl 6,7-dihydro-4H-thieno[3,2-c]pyridine-5-carboxylate]
6 | 0.32 µM | O=C(Oc1nn(C(=O)N2CCN(c3ccccc3)CC2)c2cc(F)ccc12)N1CCN(c2ccccc2)CC1 [Example 1a, 6-Fluoro-1-(4-phenylpiperazine-1-carbonyl)-1H-indazol-3-yl 4-phenylpiperazine-1-carboxylate]

Row | Compound | IC50
7 | Cc1cc(O)nc2c1c(OC(=O)N1CCC(C(F)(F)F)CC1)nn2C(=O)N1CCN(C)CC1 [Example 15, 6-Hydroxy-4-methyl-1-(4-methylpiperazine-1-carbonyl)-1H-pyrazolo[3,4-b]pyridin-3-yl 4-trifluoromethylpiperidine-1-carboxylate] | 1.5 µM

What follows are compounds tested against T2, endothelial lipase (EL) (Homo sapiens, UniProt Q9Y5X9) (assay: EL inhibition assay (conditioned medium of recombinant cell lines, Bodipy phospholipid substrate)). Details: EL from conditioned medium (CHO, HEK293); 37° C., 60 minutes.
T2 construct: made in house; host or cells: recombinant cell lines CHO, HEK293 (conditioned medium, concentrated)
T2 sequence (Q9Y5X9 21-500): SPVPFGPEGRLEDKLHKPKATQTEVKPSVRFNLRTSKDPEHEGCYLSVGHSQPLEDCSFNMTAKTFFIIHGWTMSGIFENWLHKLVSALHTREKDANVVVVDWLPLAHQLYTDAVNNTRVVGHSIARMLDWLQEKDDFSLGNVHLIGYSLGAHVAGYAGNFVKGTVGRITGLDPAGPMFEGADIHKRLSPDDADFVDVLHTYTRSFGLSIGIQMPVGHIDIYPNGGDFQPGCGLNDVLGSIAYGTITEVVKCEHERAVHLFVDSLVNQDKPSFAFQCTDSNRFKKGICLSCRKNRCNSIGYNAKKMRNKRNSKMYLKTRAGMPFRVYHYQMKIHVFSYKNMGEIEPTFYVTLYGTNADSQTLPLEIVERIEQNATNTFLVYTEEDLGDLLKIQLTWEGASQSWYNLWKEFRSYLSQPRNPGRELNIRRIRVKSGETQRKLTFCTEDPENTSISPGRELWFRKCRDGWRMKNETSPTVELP
Assay type: biochemical
Source text: EL is released as secretory protein in high concentration into cell culture medium (conditioned medium) by recombinant cell lines (CHO, HEK293). This is employed as enzyme solution after concentration.
The phospholipase-specific substrate 1,2-bis(4,4-difluoro-5,7-dimethyl-4-bora-3a,4a-diaza-s-indacene-3-undecanoyl)-sn-glycero-3-phosphocholine, (manufacturer Molecular Probes) is used to characterize the enzymatic activity of endothelial lipase and the effect of inhibitors. Hydrolysis of the A1 ester linkage of this phospholipid by the enzyme liberates the fluorescent dye Bodipy which can be detected after separation by thin-layer chromatography on an HPTLC plate (silica gel 60, Merck) or directly in the reaction vessel by measuring the fluorescence.
The substrate solution is prepared by taking up 100 μg of 1,2-bis(4,4-difluoro-5,7-dimethyl-4-bora-3a,4a-diaza-s-indacene-3-undecanoyl)-sn-glycero-3-phospho-choline (manufacturer Molecular Probes), 2.4 mg of tripalmitin (Sigma) and 7.9 mg of DOP—choline (1,2-dioleoyl-sn-glycero-3-phosphocholine) in 393 μl of chloroform and then transferring 157 μl into a fresh reaction vessel. After evaporation of the solvent, the lipid mixture is dissolved in 4 ml of 200 mM TRIS-HCl, 150 mM sodium chloride, pH=7.4, by sonication twice. The subsequent enzymic reaction takes place at 37° C. for 60 minutes. For this purpose, 45 μl of the substrate solution are incubated with 1 μl of inhibitor of appropriate concentration (dissolved in DMSO, pure DMSO solution is used as control) and 5 μl of enzyme solution (conditioned medium). Then 3 μl of the assay mixture are loaded onto an HPTLC plate (silica gel 60, Merck), and the liberated fluorescent dye is separated for detection with an eluent (diethyl ether:petroleum benzene:acetic acid [78:22:1]). After evaporation of the eluent, the plate is read in a fluorescence scanner. An increased release of the fluorescent dye in the uninhibited reaction is to be observed as a measure of the enzymic activity.
The enzymatic activity is reduced as a function of the inhibitor concentration used, and the inhibitor concentration at which a half-maximum enzymatic activity is observed is called IC50.

Row | Compound | IC50
8 | Cc1ccccc1CNC(=O)n1c(=O)c2ccccc2n1C(=O)NCc1ccccc1C [Example 13, 3-Oxo-3H-indazole-1,2-dicarboxylic acid bis(2-methylbenzylamide)] | 0.84 µM
9 | 6-Chloro-3-oxo-3H-indazole-1,2-dicarboxylic acid bishexylamide [Example 10a] | 0.05 µM
10 | O=C(NCc1ccccc1)Oc1nn(C(=O)NCc2ccccc2)c2cc(Cl)ccc12 [Example 11b, 1-benzylcarbamoyl-6-chloro-1H-indazol-3-yl benzyl carbamate] | 1.47 µM
11 | CCCCCCNC(=O)Oc1nn(C(=O)NCCCCCC)c2cc(Cl)ccc12 [Example 10b, 6-chloro-1-hexylcarbamoyl-1H-indazol-3-yl hexylcarbamate] | 0.06 µM
12 | 6-Chloro-3-oxo-3H-indazole-1,2-dicarboxylic acid bisbenzylamide [Example 11a] | 0.26 µM
13 | Cc1ccccc1CNC(=O)n1c(=O)c2ccccc2n1C(=O)N1CCC(C)CC1 [Example 12, 1-(4-Methylpiperidine-1-carbonyl)-3-oxo-1,3-dihydroindazole-2-carboxylic acid 2-methylbenzylamide] | 0.22 µM
